Results reported in patent US7951844B2, “Tranquilizer and functional food” (J-Oil Mills, Inc., priority 2007, dated 2011).
Structures can show the parent of a compound that is named as a salt.

What was measured:
fear-conditioned mice [1] = experiment: fear condition-induced akinesia time (conditioned-fear measurement system); format: in vivo, mouse; conditions: for akinesia time (for every 60 seconds) compared to the control group, two-way analysis of variance: 30 mg/kg oral for 7 days, P<0.01 (menaquinone-4), P<0.05 (menaquinone-7); for akinesia time (% of freezing), period from 0 to 60 seconds / akinesia time (% of freezing), period from 180 to 240 seconds: male C57BL/6 mice, 30 mg/kg oral forced feeding for 7 days, measured 2 h after final administration, mean of 10 mice
Text: A stimulus from the outside enters the brain through the sense organs, and is sent to the amygdaloid body and the hippocampus-lateral septum system, where it is judged if the stimulus is beneficial or harmful. (The judgment is referred to as “biological value evaluation”). The information that has been evaluated is stored in the amygdaloid body and the hippocampus. At the same time, biological response occurs, and biological response is visually recognized by an observer as emotional expression. A human and an animal learn (acquire) information on the biological value evaluation they gained through their experiences. When they receive the same stimulus, the stimulus is compared in the amygdaloid body and the hippocampus-lateral septum system. The response that occurs at the time is referred to as “conditioned emotional response”. Assume that a rat or mouse is put into a specified box and an electric stimulus it hates is applied to the rat or mouse. […] The akinesia is referred to as “condition-induced akinesia”. Currently, an animal model for evaluating anti-anxiety and anti-depression effects is widely used while using decrease of akinesia time as an index.
Whether the tranquilizer of the invention has a similar effect as a commercially-available anti-depressant was examined using said anxiety evaluation system. Specifically, fear-conditioned mice were fed through forced feeding a sample consisting of vitamin K and medium, or a control sample consisting of medium only, respectively, for 7 days. The effect of each sample was examined on the akinesia time of mice.
Menaquinone-4 and menaquinone-7 as vitamin K to be used as an active ingredient of an anti-anxiety agent of the invention were purchased from Wako Pure Chemical Industries, Ltd. After the given amounts of menaquinone-4 or menaquinone-7 were weighed, they were suspended in 0.5% MC so that a certain concentration is acquired. The control group was fed with only the medium (0.5% MC).
(§1) 10-week old male mice (C57BL/6NCrlCrlj, SPF grade) were purchased from Charles River Laboratories Japan. After 5-day quarantine period and subsequent 5-day acclimatization, weight measurement and observation of the general condition were conducted once a day.
A solid feed (ANG93G, Oriental Yeast Co., Ltd.) was placed in the feeder, and the mice were allowed to freely take the feed. The mice were allowed to freely drink water using a water bottle. The samples were orally administered through forced feeding in accordance specified method, using a disposable syringe made of polypropylene (manufactured by Terumo Corporation, Japan) attached with a disposable feeding needle for mouse (manufactured by Fuchigami kikai Ltd.). The sample was administered while it was stirred with a stirrer. The sample was administered so that the administration quantity of Vitamin K was 30 mg per kg in weight. The administration amount of liquid was calculated based on 10 ml/kg based using the weight on the date of administration.
(§2) The general conditions and death of a mouse were observed once a day before the administration. The weights were measured once a day before administration. A conditioned-fear measurement system (manufactured by ActiMetrics) was used for measuring electric stimulus and akinesia time. After the mice allocated to the individual groups were placed in the conditioned-fear measurement system, electric stimulus was applied for fear conditioning and the akinesia time was measured simultaneously. Electric stimulus of 0.3 mA for one second in every 15 seconds was applied for 240 seconds. Upon completion of the electric stimulus, the sample was administered to the mice. After 7-day administration, the mice in the control group (0.5% MC) and in the vitamin K-administered groups were placed again in the conditioned-fear measurement system at 2 hours or 2 hours and 1 minute after the final administration, and the akinesia time in 4 minutes was measured under the condition without electric stimulus being applied. […]

[2] = general conditions, death and weights during 7-day administration; format: in vivo, mouse; conditions: mice, 30 mg/kg oral for 7 days, compared with control group (0.5% MC)
Protocol: as §1
A solid feed (ANG93G, Oriental Yeast Co., Ltd.) was placed in the feeder, and the mice were allowed to freely take the feed. The mice were allowed to freely drink water using a water bottle. […] The sample was administered so that the administration quantity of Vitamin K was 30 mg per kg in weight. The administration amount of liquid was calculated based on 10 ml/kg based using the weight on the date of administration.
as §2, with “A conditioned-fear measurement system (manufactured by ActiMetrics) was used for measuring electric stimulus and akinesia time.” left out, “Electric stimulus of 0.3 mA for one second in every 15 seconds was applied for 240 seconds. Upon completion of the electric stimulus, the sample was administered to the mice.” left out

[3] = MK-7 originating from fermented soybeans taken, compared with MK-4 taken directly (Ozaki et al. 2006); cited from earlier work
fear-conditioned mice [4] = conditions: 7-day oral administration of 30 mg/kg; cited from earlier work

Row | SMILES | akinesia time (for every 60 seconds) compared to the control group, two-way analysis of variance (fear-conditioned mice [1]) | akinesia time (% of freezing), period from 0 to 60 seconds (fear-conditioned mice [1]) [%] | akinesia time (% of freezing), period from 180 to 240 seconds (fear-conditioned mice [1]) [%] | weights through the administration period [2] | MK-4 in the brain [3] | condition-induced akinesia (fear-conditioned mice [4])
1 | CC(C)=CCC/C(C)=C/CC/C(C)=C/CC/C(C)=C/CC/C(C)=C/CC/C(C)=C/CC/C(C)=C/CC1=C(C)C(=O)c2ccccc2C1=O [menaquinone-7] | significant decreases in the akinesia time were observed | 38.84 | 20.83 | remained substantially constant | increases in the brain more remarkably | 
2 | CC(C)=CCC/C(C)=C/CC/C(C)=C/CC/C(C)=C/CC1=C(C)C(=O)c2ccccc2C1=O [menaquinone-4] | significant decreases in the akinesia time were observed | 31.99 | 22.29 | remained substantially constant |  | 
3 | CCN(CC)C(=O)C1(c2ccccc2)CC1CN (stereo not shown) [milnacipran hydrochloride] |  |  |  |  |  | akinesia is alleviated
